Results: patent publication US20260356879A1, “CELASTROL DERIVATIVES” (Celloram Inc., priority 2022, published 2026)

Legend:
[1] = molecular target: T1, NLRP3 (Homo sapiens, UniProt Q96P20); assay: DARTS assay: protection of NLRP3 from Pronase degradation in THP-1 lysates; format: binding; details: 10 μM, Pronase (50-500 ng/μg of protein), FIG. 6A, 6B
T1 construct: DARTS with Pronase, NACHT and PYD antibodies
Source text: The NLRP3 inflammasome is composed of a multi-protein complex and the exact molecular mode of NLRP3 activation remains unclear. Currently, there are no NLRP3 inflammasome inhibitors in the clinic, and it is important to identify the mechanism of action and molecular target of potential small molecules that interact with NLRP3. This example illustrates a study of the ability of CLM-022 to protect the NLRP3 molecule as determined using a drug affinity responsive target stability (DARTS) assay. DARTS assay is a robust method to identify small molecule target protein. In case of a drug-target interaction, the small molecule protects target protein from degradation by proteinase (Pronase) whereas free-proteins may be degraded very efficiently in the given condition.
The DARTS assay was performed using THP-1 lysates pretreated with LPS and Nigericin to induce activation of NLRP3 inflammasome. THP-1 cells (1×10^5/mL) were treated with LPS (100 ng/ml) for 3 hours, followed by 10 μM Nigericin for an additional 30 minutes. Pronase (50-500 ng/μg of protein) was added to the lysate with CLM-022 (10 μM) or MCC950 (10 μM) for the indicated time (10-15 min) at room temperature. The protein components of NLRP3 inflammasome were visualized using antibody recognizing NLRP3-Natch domain (FIG. 6A), NLRP-PYD domain (FIG. 6B), or NEK7 protein (FIG. 6C). […]

[2] = test system: THP-1 cells; assay: THP-1 cell viability (inflammasome-induced pyroptosis), live/dead staining and flow cytometry; format: cell-based, human; details: THP-1, LPS and Nigericin, 0 μM to 10 μM; FIG. 7A
Source text: (§1) Pyroptosis, a pro-inflammatory form of cell death, is triggered by the activation of NLRP3 inflammasome components (GSDMD and Caspase-1), leading to the release of pro-inflammatory cytokines IL-1β and IL-18, as well as damage-associated molecular patterns (DAMPs). This process elicits a cascade of inflammatory responses, which can persist if dysregulated in affected tissues. Given the significant inhibitory potential of CLM-022 against NLRP3 inflammasome and IL-1β secretion, it was proposed that CLM-022 could effectively enhance cell viability by inhibiting pyroptosis in the context of inflammation and inflammasome activation. This example illustrates a comparative study of the abilities of CLM-022 and MCC950 to protect THP-1 cells from inflammasome-induced pyroptosis.
(§2) After LPS and Nigericin treatment, THP-1 cells were treated with either CLM-022 or MCC950 over a dosage range of 0 μM to 10 μM and cell viability was determined by impermeant live/dead staining dye and flow cytometric analysis. Additionally, NLRP3 inflammasome-induced cytotoxicity was investigated by measuring the level of LDH in the conditioned media after the CLM-022 and MCC950 treatments. Further, Western blotting of samples from the THP-1 cell viability assays was carried out to determine levels of the pyroptosis-mediating molecules, GSDMD and Caspase-1.

[3] = test system: GSDMD and Caspase-1; assay: GSDMD and Caspase-1 cleavage in THP-1 cells (western blot); format: cell-based; details: Homo sapiens; THP-1, western blot; FIG. 7C; read-out: concentration inhibiting GSDMD and Caspase-1 cleavage
Source text: as §1, §2

[4] = test system: TNF-α secretion; assay: Secreted TNF-α in conditioned media of BMDC (ELISA), LPS+ATP or LPS+Nigericin; format: cell-based; details: 63-500 nM, FIG. 2C
Procedure: FIG. 2A depicts western blot images showing the relative NLRP3 inflammasome activity of the compounds 22 (CLM-022) and 1 (CLM-001) by detecting the level of cellular ASC complex and the mature form of IL-1β (15 kDa) in a conditioned media of BMDCs treated with LPS (100 ng/ml) for 3 hours and then the compound at 50 nM, 100 nM, and 500 nM concentration for 30 min, followed by ATP or Nigericin. ASC monomer and β-Actin proteins were used as controls. FIG. 2B depict plots of results showing secreted IL-1β levels measured by ELISA using conditioned media of BMDC treated with the compound 22 or compound 1 at 63 nM, 125 nM, 250 nM, and 500 nM, under NLRP3 inflammasome activation induced either by LPS+ATP or LPS+Nigericin. FIG. 2C depict plots of results showing secreted TNF-α levels measured by ELISA using conditioned media of BMDC treated with the compound 22 or compound 1 at 63 nM, 125 nM, 250 nM, and 500 nM, under NLRP3 inflammasome activation induced either by LPS+ATP or LPS+Nigericin.
3. The secreted form of TNF-α, a NLRP3 inflammasome independent cytokine, induced by LPS+ATP or LPS+Nigericin were measured by ELISA assay using the conditioned media of BMDC treated with compound 1 (CLM-1) or compound 22 (CLM-022) at concentrations of 63, 125, 250, 500 nM under NLRP3 inflammasome activation induced either by LPS+ATP or LPS+Nigericin.

[5] = test system: LPS-induced acute inflammation; assay: LPS-induced septic shock mouse model, cytokine expression in serum (ELISA) and colonic mucosa (qPCR); format: in vivo
Procedure: FIG. 4A, and FIG. 4B depict results showing that compound 22 (CLM-022) decreased the production of pro-inflammatory cytokines in the LPS-induced septic shock mouse model as described in Example 17. Compound 1 (CLM-001) and compound 22 (CLM-022) (1 mg/kg) injected intraperitoneally 1 hour prior to septic shock induction by administering sublethal dose of LPS (25 mg/kg, i.p.), mice were sacrificed 4 hours post LPS injection, and subjected to measurement of inflammatory cytokine expression. FIG. 4A depicts plot of data showing that the level of TNF-α decreased in the serum of compound 1 and compound 22 treated mice.
This example illustrates a study of the inhibitory function of an exemplary celastrol derivative of the present disclosure (compound 22) against LPS-induced acute inflammation in vivo, we set up LPS-induced septic shock mouse model (Yu et al., 2017) and detected the expression levels of inflammatory cytokines in colon.
Mice (n=3 per group) were administered intraperitoneally (i.p.) with control vehicle, compound 1 (1 mg/kg), or compound 22 (1 mg/kg). After 1 hour, mice were administered by i.p. injection a sublethal dose of LPS (25 mg/kg). Four hours later, the mice were subjected to blood collection and harvesting colonic mucosa by scraping colon. Cytokine expression was measured by conducting ELISA (Cat #900-T54, PeproTech) for TNF-α on blood serum samples and qPCR for the cytokines, IL-1 (TaqMan, Mm00434228), IL-6 (TaqMan, Mm00446190), TNF-α (TaqMan, 00443258), iNOS (TaqMan, 00440502), on colonic mucosa samples.

T1 sequence (Q96P20 whole entry): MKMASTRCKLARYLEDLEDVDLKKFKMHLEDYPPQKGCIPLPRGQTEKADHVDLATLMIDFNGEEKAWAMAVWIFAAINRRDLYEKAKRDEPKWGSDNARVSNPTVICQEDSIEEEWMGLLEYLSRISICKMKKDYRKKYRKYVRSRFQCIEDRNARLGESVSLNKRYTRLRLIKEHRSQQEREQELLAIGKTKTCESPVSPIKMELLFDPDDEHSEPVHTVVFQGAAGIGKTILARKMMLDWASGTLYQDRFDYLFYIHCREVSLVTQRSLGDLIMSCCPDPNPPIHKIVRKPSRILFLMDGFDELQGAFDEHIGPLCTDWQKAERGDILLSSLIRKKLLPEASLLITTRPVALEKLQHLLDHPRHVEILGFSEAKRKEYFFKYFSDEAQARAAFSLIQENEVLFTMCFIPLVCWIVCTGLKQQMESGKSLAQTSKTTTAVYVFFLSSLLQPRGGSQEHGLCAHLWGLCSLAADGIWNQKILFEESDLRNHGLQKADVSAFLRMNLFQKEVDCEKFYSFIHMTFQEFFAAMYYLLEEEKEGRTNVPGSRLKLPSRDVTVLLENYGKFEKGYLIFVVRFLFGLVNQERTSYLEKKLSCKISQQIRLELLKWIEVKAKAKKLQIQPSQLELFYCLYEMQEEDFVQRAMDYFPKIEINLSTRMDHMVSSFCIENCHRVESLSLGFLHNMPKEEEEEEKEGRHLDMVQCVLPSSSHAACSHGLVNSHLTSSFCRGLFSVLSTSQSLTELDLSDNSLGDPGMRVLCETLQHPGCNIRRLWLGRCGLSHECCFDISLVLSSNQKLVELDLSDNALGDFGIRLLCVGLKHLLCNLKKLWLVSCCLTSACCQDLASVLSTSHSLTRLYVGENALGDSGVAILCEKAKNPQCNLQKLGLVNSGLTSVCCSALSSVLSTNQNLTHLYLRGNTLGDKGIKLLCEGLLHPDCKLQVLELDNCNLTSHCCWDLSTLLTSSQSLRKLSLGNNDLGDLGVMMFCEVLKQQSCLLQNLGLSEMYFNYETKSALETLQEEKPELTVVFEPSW

**Q.** Which “protection of NLRP3 protein from Pronase-induced degradation” value [1] does the source give for `CC1=C(O)C(=O)C=C2C1=CC=C1[C@@]2(C)CC[C@@]2(C)[C@@H]3C[C@](C)(N(C)C(=O)C(=O)N(C)C)CC[C@]3(C)CC[C@]12C` [Compound 22, N′-[(2R,4aS,6aR,6aS,14aS,14bR)-10-hydroxy-2,4a,6a,6a,9,14a-hexamethyl-11-oxo-1,3,4,5,6,13,14,14b-octahydropicen-2-yl]-N,N,N′-trimethyl-oxamide] here?
**A.** markedly improved protection of NLRP3 protein, but not NEK7, from Pronase-induced degradation

**Q.** What about the “protection of NLRP3 protein from Pronase-induced degradation” value ([1]; listed as CLM-022) of the same molecule?
**A.** markedly protected NLRP3 protein from degradation which was obviously more efficient than that of MCC950

**Q.** What about the “increase in cell viability” value [2] of the same molecule?
**A.** up to 60%

**Q.** And the minimal effective concentration [3]?
**A.** ≤ 0.1 µM

**Q.** What about the “suppression of TNF-α secretion” value [4] of the same molecule?
**A.** no significant suppressive effect on TNF-α inflammatory cytokine secretion

**Q.** What about the “level of TNF-α in serum” value ([5]; 1 mg/kg i.p. 1 hour before LPS (25 mg/kg, i.p.), 4 hours post LPS, ELISA, FIG. 4A) of the same molecule?
**A.** decreased

**Q.** And the “gene expression of IL-1β, IL-6, TNF-α, and iNOS in the colon” value ([5]; 1 mg/kg i.p. 1 hour before LPS (25 mg/kg, i.p.), 4 hours post LPS, qPCR, FIG. 4B)?
**A.** markedly inhibited

**Q.** What about the “inhibition of LPS-induced acute inflammation responses (IL-1, IL-6, TNF-α, iNOS in blood serum and colon mucosa)” value ([5]; 1 mg/kg i.p., LPS 25 mg/kg i.p., FIGS. 4A and 4B) of the same molecule?
**A.** efficiently suppressed expression of an inflammatory mediator and the inflammatory cytokines including IL-1, IL-6, TNF-α, and INOS in the blood serum and colon mucosa to levels comparable to or lower than the levels observed in the group administered celastrol (Compound 1)
